According to patent US20230000996A1, “RAPAFUCIN DERIVATIVE COMPOUNDS AND METHODS OF USE THEREOF” (The Johns Hopkins University, priority 2019, published 2023):

Tests used:
A549 = assay: Cell proliferation assay (Prolif.), IC50 scored relative to DMSO control; format: cell-based; conditions: A549 cells; for Prolif, A549: IC50 class relative to DMSO control; for Rel. Prolif., A549: scored low/medium/high
Description: Cell Proliferation Assay (Prolif.) Guo et al. (2018) Nat. Chem. 11:254-63. Specific cell lines are indicated in each assay and cultured in complete growth media. Activity is scored according to the IC50 values relative to DMSO control. “Low” indicates an IC50 greater than 600 nM, “Medium” indicates an IC50 between 300 nM and 600 nM “High” indicates an IC50 less than 300 nM. “Rel.Uptake” refers to uptake activity characterization relative to a single concentration assay. “Low” indicates a response greater than 0.6 times the activity relative to DMSO, “Medium” indicates a response between 0.6 and 0.3 times the activity relative to DMSO, “High” indicates a response less than 0.3 times the activity relative to DMSO.

[1] = Nucleoside uptake, single concentration assay (Rel.Uptake); cell line indicated in each table; format: cell-based; conditions: nucleoside uptake, single concentration assay, 293T cells, response relative to DMSO
Description: Nucleoside Uptake Assay (uptake). Nuceloside uptake assays were performed with using 3H-Thymidine as described in Guo et al. (2018) Nat. Chem. 11:254-63. Specific cell lines are indicated in each assay and cultured in complete growth media. Activity is scored according to the IC50 values relative to DMSO control. “Low” indicates an IC50 greater than 600 nM, “Medium” indicates an IC50 between 300 nM and 600 nM “High” indicates an IC50 less than 300 nM. “Rel.Uptake” refers to uptake activity characterization relative to a single concentration assay. “Low” indicates a response greater than 0.6 times the activity relative to DMSO, “Medium” indicates a response between 0.6 and 0.3 times the activity relative to DMSO, “High” indicates a response less than 0.3 times the activity relative to DMSO.

[2] = proliferation response relative to DMSO control

| Compound | Prolif, A549 (A549) | Rel. Prolif., A549 (A549; [2]) | Rel. Prolif., A549 (A549; proliferation response relative to DMSO, single concentration) | Rel. Uptake, 293T [1] |
| --- | --- | --- | --- | --- |
| CCCC[C@H]1C(=O)N[C@@H](Cc2ccc3ccccc3c2)C(=O)N(C)[C@@H](COC(C)(C)C)C(=O)NCC(=O)N(C)CCC=CC(=O)OCC(C)(C)C(=O)C(=O)N2CCCC[C@H]2C(=O)O[C@H](CCc2ccc(OC)c(OC)c2)c2ccc(F)c(c2)OCC(=O)N1C [Compound 576] | me- dium | medium |  |  |
| CCCC[C@H]1C(=O)N[C@@H](Cc2ccc3ccccc3c2)C(=O)N(C)[C@@H](COC(C)(C)C)C(=O)NCC(=O)N(C)CCC=CC(=O)OCC(C)(C)C(=O)C(=O)N2CCCC[C@H]2C(=O)O[C@H](CCc2cc(OC)c(OC)cc2F)c2cccc(c2)OCC(=O)N1C [Compound 569] | me- dium | medium |  |  |
| CCCC[C@H]1C(=O)N[C@@H](Cc2ccc3ccccc3c2)C(=O)N(C)[C@@H](COC(C)(C)C)C(=O)NCC(=O)N(C)CCC=CC(=O)OCC(C)(C)C(=O)C(=O)N2CCCC[C@H]2C(=O)O[C@H](CCc2cc(OC)c(OC)cc2O)c2cccc(c2)OCC(=O)N1C [Compound 567] | me- dium | medium |  |  |
| CCCC[C@H]1C(=O)N[C@@H](Cc2ccc3ccccc3c2)C(=O)N(C)[C@@H](COC(C)(C)C)C(=O)NCC(=O)N(C)CCC=CC(=O)OCC(C)(C)C(=O)C(=O)N2CCN(C)C[C@H]2C(=O)O[C@H](CCc2ccc(OC)c(OC)c2)c2cccc(c2)OCC(=O)N1C [Compound 572] | me- dium | medium |  |  |
| CCCC[C@H]1C(=O)N[C@@H](Cc2ccc3ccccc3c2)C(=O)N(C)[C@@H](COC(C)(C)C)C(=O)NCC(=O)N(C)CCC=CC(=O)OCC(C)(C)C(=O)C(=O)N2CCN(C(=O)OCC3c4ccccc4-c4ccccc43)C[C@H]2C(=O)O[C@H](CCc2ccc(OC)c(OC)c2)c2cccc(c2)OCC(=O)N1C [Compound 571] |  | low |  |  |
| CCCC[C@H]1C(=O)N[C@@H](Cc2ccc3ccccc3c2)C(=O)N(C)[C@@H](COC(C)(C)C)C(=O)NCC(=O)N(C)CCC=CC(=O)OCC(C)(C)C(=O)C(=O)N2CCCC[C@H]2C(=O)O[C@H](CCc2ccc(OC)c(OC)c2O)c2cccc(c2)OCC(=O)N1C [Compound 565] | me- dium | medium |  |  |
| CCCC[C@H]1C(=O)N[C@@H](Cc2ccc3ccccc3c2)C(=O)N(C)[C@@H](COC(C)(C)C)C(=O)NCC(=O)N(C)CCC=CC(=O)OCC(C)(C)C(=O)C(=O)N2CCCC[C@H]2C(=O)O[C@H](CCc2c(OC)ccc(OC)c2OC)c2cccc(c2)OCC(=O)N1C [Compound 564] |  | low |  |  |
| CCCC[C@H]1C(=O)N[C@@H](Cc2ccc3ccccc3c2)C(=O)N(C)[C@@H](COC(C)(C)C)C(=O)NCC(=O)N(C)CCC=CC(=O)OCC(C)(C)C(=O)C(=O)N2CCCC[C@H]2C(=O)O[C@H](CCc2cc(OC)c(OC)cc2OC)c2cccc(c2)OCC(=O)N1C [Compound 562] | me- dium | medium |  |  |
| CCCC[C@H]1C(=O)N[C@@H](Cc2ccc3ccccc3c2)C(=O)N(C)[C@@H](COC(C)(C)C)C(=O)NCC(=O)N(C)CCC=CC(=O)OCC(C)(C)C(=O)C(=O)N2CCCC[C@H]2C(=O)O[C@H](CCc2ccc(OC)c(OC)c2OC)c2cccc(c2)OCC(=O)N1C [Compound 561] | me- dium | medium |  |  |
| CCCC[C@H]1C(=O)N[C@@H](Cc2ccc3ccccc3c2)C(=O)N(C)[C@@H](COC(C)(C)C)C(=O)NCC(=O)N(C)CCC=CC(=O)OCC(C)(C)C(=O)C(=O)N2CCCC[C@H]2C(=O)O[C@H](CCc2cc(OC)cc(OC)c2OC)c2cccc(c2)OCC(=O)N1C [Compound 563] |  | low |  |  |
| C=CC(=O)OCC(C)(C)C(=O)C(=O)N1CCCC[C@H]1C(=O)O[C@H](CCc1ccc(OC)c(OC)c1)c1cncc(NC(=O)CCC(=O)OC(C)(C)C)n1 [Compound 13] |  |  | low |  |
| CCCC[C@H]1C(=O)N[C@@H](Cc2ccc3ccccc3c2)C(=O)N(C)[C@@H](COC(C)(C)C)C(=O)NCC(=O)N(C)CCC=CC(=O)OCC(C)(C)C(=O)C(=O)N2CCCC[C@H]2C(=O)O[C@H](CCc2cc(OC)c(OC)c(OC)c2)c2cccc(c2)OCC(=O)N1C [Compound 560] | me- dium | medium |  |  |
| CCCC[C@H]1C(=O)N[C@@H](Cc2ccc3ccccc3c2)C(=O)N(C)[C@@H](COC(C)(C)C)C(=O)NCC(=O)N(C)CCC=CC(=O)OCC(C)(C)C(=O)C(=O)N2CCCC[C@H]2C(=O)O[C@H](CCc2cc(F)c(OC)c(OC)c2)c2cccc(c2)OCC(=O)N1C [Compound 568] | me- dium | medium |  |  |
| COc1ccc(CC[C@H]2OC(=O)[C@@H]3CCCCN3C(=O)C(=O)C(C)(C)COC(=O)C=CCCN(C)C(=O)[C@@H](c3ccccc3)NC(=O)[C@H](Cc3ccc(OP(C)(C)=O)cc3)NC(=O)[C@H]3CCCN3C(=O)[C@H](CC(C)C)N(C)C(=O)COc3cccc2c3)cc1OC [Compound 1520] |  |  |  | low |
| CCCC[C@H]1C(=O)N[C@@H](Cc2ccc3ccccc3c2)C(=O)N(C)[C@@H](COC(C)(C)C)C(=O)NCC(=O)N(C)CCC=CC(=O)OCC(C)(C)C(=O)C(=O)N2CCCC[C@H]2C(=O)O[C@H](CCc2ccc(OC)c(OC)c2)c2cc(F)cc(c2)OCC(=O)N1C [Compound 574] |  | low |  |  |
| CCCC[C@H]1C(=O)N[C@@H](Cc2ccc3ccccc3c2)C(=O)N(C)[C@@H](COC(C)(C)C)C(=O)NCC(=O)N(C)CCC=CC(=O)OCC(C)(C)C(=O)C(=O)N2CCCC[C@H]2C(=O)O[C@H](CCc2cc(O)c(OC)c(OC)c2)c2cccc(c2)OCC(=O)N1C [Compound 566] | me- dium | medium |  |  |
| COc1ccc(CC[C@H]2OC(=O)[C@@H]3CCCCN3C(=O)C(=O)C(C)(C)COC(=O)C=CCCN(C)C(=O)[C@@H]3CCCN3C(=O)[C@H](COC(C)(C)C)N(C)C(=O)[C@@H](c3ccccc3)NC(=O)[C@H](C)N(C)C(=O)COc3cc(F)cc2c3)cc1OC [Compound 1595] |  |  |  | Low (“Low” indicates a response greater than 0.6 times the activity relative to DMSO) |
| CCCC[C@H]1C(=O)N[C@@H](Cc2ccc3ccccc3c2)C(=O)N(C)[C@@H](COC(C)(C)C)C(=O)NCC(=O)N(C)CCC=CC(=O)OCC(C)(C)C(=O)C(=O)N2CCCC[C@H]2C(=O)O[C@H](CCc2ccc(OC)c(OC)c2F)c2cccc(c2)OCC(=O)N1C [Compound 570] | me- dium | medium |  |  |
| COc1ccc(CC[C@H]2OC(=O)[C@@H]3CCCCN3C(=O)C(=O)C(C)(C)COC(=O)C=CCCN(C)C(=O)[C@@H](Cc3ccccc3)NC(=O)CN(C)C(=O)[C@@H](Cc3ccccc3)NC(=O)[C@H](Cc3ccc(O)cc3)N(C)C(=O)COc3ccc(F)c2c3)cc1OC [Compound 1575] |  |  |  | low |
| COc1ccc(CC[C@H]2OC(=O)[C@@H]3CCCCN3C(=O)C(=O)C(C)(C)COC(=O)C=CCCN(C)C(=O)[C@@H]3CCCN3C(=O)[C@H](COC(C)(C)C)N(C)C(=O)[C@H](c3ccccc3)NC(=O)[C@H](C)N(C)C(=O)COc3cc(F)cc2c3)cc1OC [Compound 1596] |  |  |  | Low (“Low” indicates a response greater than 0.6 times the activity relative to DMSO) |
| COc1ccc(CC[C@H]2OC(=O)[C@@H]3CCCCN3C(=O)C(=O)C(C)(C)COC(=O)C=CCCN(C)C(=O)[C@H](CC(C)C)N(C)C(=O)[C@H]3CCCN3C(=O)[C@H](Cc3ccc(O)cc3)NC(=O)C(c3ccccc3)NC(=O)CCC(=O)Nc3cccc2c3)cc1OC (stereo partly drawn) [Compound 1522] |  |  |  | high |
| COc1ccc(CC[C@H]2OC(=O)[C@@H]3CCCCN3C(=O)C(=O)C(C)(C)COC(=O)C=CCCN(C)C(=O)[C@@H](Cc3ccccc3)NC(=O)CN(C)C(=O)[C@@H](Cc3ccccc3)NC(=O)[C@H](Cc3ccc(O)cc3)N(C)C(=O)COc3cc2ccc3F)cc1OC [Compound 1578] |  |  |  | low |
| CCCC[C@H]1C(=O)N[C@@H](Cc2ccc3ccccc3c2)C(=O)N(C)[C@@H](COC(C)(C)C)C(=O)NCC(=O)N(C)CCC=CC(=O)OCC(C)(C)C(=O)C(=O)N2CCCC[C@H]2C(=O)O[C@H](CCc2ccc(OC)c(OC)c2)c2cc(ccc2F)OCC(=O)N1C [Compound 573] |  | low |  |  |
| COc1ccc(CC[C@H]2OC(=O)[C@@H]3CCCCN3C(=O)C(=O)C(C)(C)COC(=O)C=CCCN(C)C(=O)[C@H](CC(C)C)N(C)C(=O)[C@H]3CCCN3C(=O)[C@H](Cc3ccc(CC(=O)NCc4ccccc4)cc3)NC(=O)[C@H](c3ccccc3)NC(=O)CCC(=O)Nc3cccc2c3)cc1OC [Compound 1590] |  |  |  | High (“High” indicates a response less than 0.3 times the activity relative to DMSO) |
| COc1ccc(CC[C@H]2OC(=O)[C@@H]3CCCCN3C(=O)C(=O)C(C)(C)COC(=O)C=CCCN(C)NC(c3ccccc3)C(=O)N(C)[C@@H](Cc3ccccc3)C(=O)N3CCC[C@@H]3C(=O)N(C)[C@@H](CC(C)C)C(=O)C(=O)CCOc3cccc2c3)cc1OC (stereo partly drawn) [Compound 1556] |  |  |  | low |
